Active and inactive are the calls of the source. The calls are words filed in the database; no cut-off is given here.
Key:
[1] = system: MOLM-13; assay: Induction of apoptosis in human MOLM-13 cells assessed as live cells at 1 uM incubated for 12 hrs by annexin-V and propidium iodide staining based flow cytometry analysis (reference value: 91.49%); assay type: functional
[2] = target: T1, MAP kinase-interacting serine/threonine-protein kinase 1 (Homo sapiens, UniProt Q9BUB5); assay: Inhibition of wild type human full length MKN1 (M1 to L424) expressed in mammalian expression system by HTRF method
Target sequence in this assay (Q9BUB5 whole entry): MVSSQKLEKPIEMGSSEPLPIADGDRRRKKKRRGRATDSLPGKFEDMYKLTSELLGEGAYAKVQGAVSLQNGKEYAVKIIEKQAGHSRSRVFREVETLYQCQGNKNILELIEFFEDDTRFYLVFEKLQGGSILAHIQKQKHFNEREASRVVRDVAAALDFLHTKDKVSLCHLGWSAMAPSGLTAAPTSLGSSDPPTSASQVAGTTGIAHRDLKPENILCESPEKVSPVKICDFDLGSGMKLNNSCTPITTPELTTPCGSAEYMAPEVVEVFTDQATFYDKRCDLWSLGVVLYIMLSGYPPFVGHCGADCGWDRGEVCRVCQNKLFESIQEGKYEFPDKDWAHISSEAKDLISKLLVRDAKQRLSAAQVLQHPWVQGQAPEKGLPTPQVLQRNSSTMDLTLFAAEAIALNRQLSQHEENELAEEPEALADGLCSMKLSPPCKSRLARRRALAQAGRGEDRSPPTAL

[3] = system: MOLM-13; assay: Antitumor activity against human MOLM-13 cells xenografted in NOD/SCID mouse assessed as tumor growth inhibition at 5 mg/kg, ip daily for 2 weeks; assay type: functional; conditions: MOLM-13, ip, 336 h, read-out: TGI
[4] = target: Serine/threonine-protein kinase pim-3 (Homo sapiens, UniProt Q86V86); assay: Inhibition of recombinant human Pim3 (2 to end residues) using RSRHSSYPAGT as substrate incubated for 40 mins in presence of [gamma33P]ATP by scintillation counting based radiometry assay
[5] = target: T2, Receptor tyrosine-protein kinase erbB-2 (Homo sapiens, UniProt P04626); assay: Inhibition of wild-type human partial length ERBB2 (K646 to V1225 residues) expressed in mammalian expression system at 1 uM by Kinomescan method relative to control
[6] = target: Serine/threonine-protein kinase pim-1 (Homo sapiens, UniProt P11309); assay: Inhibition of full length recombinant human PIM1 using KKRNRTLTV as substrate incubated for 40 mins in presence of [gamma33P]ATP by scintillation counting based radiometry assay
[7] = Intrinsic clearance in rat liver microsomes preincubated for 10 mins followed by NADPH addition and further incubated upto 60 mins by LC-MS/MS analysis; assay type: ADME, Microsome; conditions: time <=70 min, read-out: CLH
[8] = AUC (0 to infinity) in Sprague Dawley rat at 2 mg/kg, iv measured after 24 hrs; assay type: ADME, organism-based; set-up: route intravenous, time 24 hrs, dose 2 mg/kg; conditions: in vivo
[9] = system: MOLM-13; assay: Downregulation of mcl-1 levels in human MOLM-13 cells at 1 to 2 uM incubated for 12 hrs by western blot analysis; assay type: functional, cell-based; conditions: dose 1-2 µM
[10] = system: MOLM-13; assay: Antiproliferative activity against human MOLM13 cells assessed as reduction of cell viability incubated for 72 hrs by trypan blue staining based cell counting analysis; assay type: functional
[11] = target: Epidermal growth factor receptor (Homo sapiens, UniProt P00533, T790M); assay: Inhibition of recombinant human EGFR T790M mutant (696 to end residues) using GGMEDIYFEFMGG as substrate after 40 mins in presence of [gamma-33ATP] by radiometric scintillation counting analysis
[12] = target: T1, MAP kinase-interacting serine/threonine-protein kinase 1; assay: Inhibition of MKN1 (unknown origin) in presence of ATP by HTRF assay
Target sequence in this assay (Q9BUB5 whole entry): as above

[13] = Toxicity in NOD/SCID mouse xenografted with human MOLM-13 cells assessed as abnormal changes in lung at 5 to 10 mg/kg, ip daily for 2 weeks by hematoxylin-eosin staining based histological analysis; assay type: organism-based; conditions: in vivo, 336 h, dose 5-10 mg/kg
[14] = system: MOLM-13; assay: Antitumor activity against human MOLM-13 cells xenografted in NOD/SCID mouse assessed as decrease in BAD phosphorylation at 10 mg/kg, ip daily for 2 weeks by western blot analysis; assay type: functional, organism-based
[15] = system: K562; assay: Downregulation of cyclin-D1 levels in human K562 cells at 1 to 2 uM incubated for 24 hrs by western blot analysis; assay type: functional, cell-based; conditions: dose 1-2 µM
[16] = Metabolic stability in rat liver microsomes assessed as half life preincubated for 10 mins followed by NADPH addition and further incubated upto 60 mins by LC-MS/MS analysis; assay type: ADME, Microsome; conditions: time <=70 min
[17] = target: T3, MAP kinase-interacting serine/threonine-protein kinase 2 (Homo sapiens, UniProt Q9HBH9); assay: Inhibition of wild type human partial length MKN2 (G63 to S388 residues) expressed in mammalian expression system at 1 uM by Kinomescan method relative to control
[18] = Cmax in Sprague Dawley rat at 2 mg/kg, iv measured after 24 hrs; assay type: ADME, organism-based; set-up: route intravenous, time 24 hrs, dose 2 mg/kg; conditions: in vivo
[19] = Toxicity in NOD/SCID mouse xenografted with human MOLM-13 cells assessed as abnormal changes in liver at 5 to 10 mg/kg, ip daily for 2 weeks by hematoxylin-eosin staining based histological analysis; assay type: organism-based; conditions: in vivo, 336 h, dose 5-10 mg/kg
[20] = system: HL-60; assay: Antiproliferative activity against human HL-60 cells assessed as reduction of cell viability incubated for 72 hrs by trypan blue staining based cell counting analysis; assay type: functional
[21] = target: T1, MAP kinase-interacting serine/threonine-protein kinase 1; assay: Inhibition of wild type human full length MKN1 (M1 to L424) expressed in mammalian expression system at 1 uM by Kinomescan method relative to control
Target sequence in this assay (Q9BUB5 whole entry, looked up): as the sequence (Q9BUB5 whole entry) above

[22] = Toxicity in NOD/SCID mouse xenografted with human MOLM-13 cells assessed as abnormal changes in spleen at 5 to 10 mg/kg, ip daily for 2 weeks by hematoxylin-eosin staining based histological analysis; assay type: organism-based; conditions: in vivo, 336 h, dose 5-10 mg/kg
[23] = AUC (0 to infinity) in Sprague Dawley rat at 10 mg/kg, ip measured after 24 hrs; assay type: ADME, organism-based; set-up: route intraperitoneal, dose 10 mg/kg, time 24 hrs; conditions: in vivo
[24] = target: T3, MAP kinase-interacting serine/threonine-protein kinase 2; assay: Inhibition of MKN2 (unknown origin) in presence of ATP by HTRF assay
[25] = Tmax in Sprague Dawley rat at 10 mg/kg, ip measured after 24 hrs; assay type: ADME, organism-based; conditions: in vivo
[26] = system: MOLM-13; assay: Antitumor activity against human MOLM-13 cells xenografted in NOD/SCID mouse assessed as decrease in 4EBP1 phosphorylation at 5 to 10 mg/kg, ip daily for 2 weeks by western blot analysis; assay type: functional, organism-based; conditions: dose 5-10 mg/kg
[27] = target: T2, Receptor tyrosine-protein kinase erbB-2; assay: Inhibition of ERBB2 (unknown origin) by mobility shift assay
[28] = Cmax in Sprague Dawley rat at 10 mg/kg, po measured after 24 hrs; assay type: ADME, organism-based; set-up: route oral, time 24 hrs, dose 10 mg/kg; conditions: in vivo
[29] = system: K562; assay: Downregulation of mcl-1 levels in human K562 cells at 1 to 2 uM incubated for 24 hrs by western blot analysis; assay type: functional, cell-based; conditions: dose 1-2 µM
[30] = target: Serine/threonine-protein kinase pim-2 (Homo sapiens, UniProt Q9P1W9); assay: Inhibition of recombinant human Pim2 (2 to end residues) using RSRHSSYPAGT as substrate incubated for 40 mins in presence of [gamma33P]ATP by scintillation counting based radiometry assay
[31] = Drug concentration in Sprague Dawley rat at 2 mg/kg, iv measured after 24 hrs; assay type: ADME, organism-based; conditions: in vivo, read-out: Ct
[32] = Toxicity in NOD/SCID mouse xenografted with human MOLM-13 cells assessed as decrease in body weight at 5 to 10 mg/kg, ip daily for 2 weeks; assay type: organism-based; conditions: in vivo, 336 h, dose 5-10 mg/kg
[33] = system: MOLM-13; assay: Induction of cell cycle arrest in human MOLM-13 cells assessed as G1 phase at 2 uM incubated for 12 hr by propidium iodide based flow cytometry analysis (Rvb= 51.29%); assay type: functional
[34] = target: T1, MAP kinase-interacting serine/threonine-protein kinase 1; assay: Inhibition of MKN1 (unknown origin) at 1 uM in presence of ATP by HTRF assay
Target sequence in this assay (Q9BUB5 whole entry, looked up): as the sequence (Q9BUB5 whole entry) above

[35] = system: MOLM-13; assay: Induction of apoptosis in human MOLM-13 cells assessed as necrotic cells at 1 uM incubated for 12 hrs by annexin-V and propidium iodide staining based flow cytometry analysis (reference value: 0.06%); assay type: functional
[36] = target: Serine/threonine-protein kinase PIM (Homo sapiens) (UniProt P11309+Q9P1W9+Q86V86); assay: Inhibition of PIM in human MOLM-13 cells assessed as reduction of BAD phosphorylation at 1 to 2 uM incubated for 12 hrs by western blot analysis; assay type: cell-based; conditions: dose 1-2 µM
Serine/threonine-protein kinase PIM (Homo sapiens), sequence (P11309 whole entry, looked up): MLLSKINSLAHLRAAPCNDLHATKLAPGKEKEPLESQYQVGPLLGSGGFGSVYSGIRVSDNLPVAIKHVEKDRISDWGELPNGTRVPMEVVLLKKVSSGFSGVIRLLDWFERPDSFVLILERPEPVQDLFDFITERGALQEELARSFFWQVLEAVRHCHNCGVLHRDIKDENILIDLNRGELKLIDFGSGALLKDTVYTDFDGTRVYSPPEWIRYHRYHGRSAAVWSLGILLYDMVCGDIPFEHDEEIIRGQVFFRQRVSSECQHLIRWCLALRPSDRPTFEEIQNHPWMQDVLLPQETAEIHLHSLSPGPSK
Serine/threonine-protein kinase PIM (Homo sapiens), sequence (Q9P1W9 whole entry, looked up): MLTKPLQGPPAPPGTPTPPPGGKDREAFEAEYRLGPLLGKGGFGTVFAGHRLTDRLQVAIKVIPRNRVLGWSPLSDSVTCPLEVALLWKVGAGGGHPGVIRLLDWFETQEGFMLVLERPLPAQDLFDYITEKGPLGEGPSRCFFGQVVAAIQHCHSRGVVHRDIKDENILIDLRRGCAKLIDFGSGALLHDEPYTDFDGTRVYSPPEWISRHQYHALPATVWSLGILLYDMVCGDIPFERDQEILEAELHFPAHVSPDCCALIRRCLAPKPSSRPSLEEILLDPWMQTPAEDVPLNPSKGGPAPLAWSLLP

T2 sequence (P04626 whole entry, the tested form may be a part): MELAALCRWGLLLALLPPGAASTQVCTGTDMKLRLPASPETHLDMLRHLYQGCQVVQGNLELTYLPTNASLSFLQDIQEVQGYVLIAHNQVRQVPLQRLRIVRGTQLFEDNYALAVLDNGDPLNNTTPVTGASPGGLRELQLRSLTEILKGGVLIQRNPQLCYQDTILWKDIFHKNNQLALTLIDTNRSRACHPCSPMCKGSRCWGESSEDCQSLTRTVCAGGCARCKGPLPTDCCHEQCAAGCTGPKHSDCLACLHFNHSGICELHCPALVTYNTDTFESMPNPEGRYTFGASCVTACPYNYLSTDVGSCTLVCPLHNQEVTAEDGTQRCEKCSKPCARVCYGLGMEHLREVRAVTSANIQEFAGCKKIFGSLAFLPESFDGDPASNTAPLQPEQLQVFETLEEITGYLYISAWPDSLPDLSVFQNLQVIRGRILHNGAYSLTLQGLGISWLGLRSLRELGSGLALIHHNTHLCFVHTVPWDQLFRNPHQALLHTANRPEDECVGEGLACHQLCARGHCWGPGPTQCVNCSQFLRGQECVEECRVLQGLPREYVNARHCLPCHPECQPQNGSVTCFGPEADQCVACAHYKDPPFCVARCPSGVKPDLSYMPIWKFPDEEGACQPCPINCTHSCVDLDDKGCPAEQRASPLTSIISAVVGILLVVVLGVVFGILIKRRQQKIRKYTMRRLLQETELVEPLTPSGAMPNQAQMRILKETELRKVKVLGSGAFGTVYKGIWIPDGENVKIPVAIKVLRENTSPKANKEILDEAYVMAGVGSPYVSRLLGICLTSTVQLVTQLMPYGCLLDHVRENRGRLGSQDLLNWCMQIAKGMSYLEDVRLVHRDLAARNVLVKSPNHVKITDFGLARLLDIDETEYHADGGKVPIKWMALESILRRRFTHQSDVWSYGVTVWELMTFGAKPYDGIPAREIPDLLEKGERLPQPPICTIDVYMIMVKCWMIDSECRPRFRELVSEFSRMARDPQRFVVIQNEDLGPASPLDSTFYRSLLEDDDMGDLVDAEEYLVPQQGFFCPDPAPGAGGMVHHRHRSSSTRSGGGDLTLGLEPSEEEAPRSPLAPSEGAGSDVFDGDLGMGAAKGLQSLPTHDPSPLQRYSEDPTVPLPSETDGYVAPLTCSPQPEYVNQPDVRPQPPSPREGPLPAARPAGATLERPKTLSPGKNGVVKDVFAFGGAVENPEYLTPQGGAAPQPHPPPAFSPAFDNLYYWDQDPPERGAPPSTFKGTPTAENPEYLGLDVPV
Epidermal growth factor receptor, sequence (P00533 25-1210 T790M limits assumed): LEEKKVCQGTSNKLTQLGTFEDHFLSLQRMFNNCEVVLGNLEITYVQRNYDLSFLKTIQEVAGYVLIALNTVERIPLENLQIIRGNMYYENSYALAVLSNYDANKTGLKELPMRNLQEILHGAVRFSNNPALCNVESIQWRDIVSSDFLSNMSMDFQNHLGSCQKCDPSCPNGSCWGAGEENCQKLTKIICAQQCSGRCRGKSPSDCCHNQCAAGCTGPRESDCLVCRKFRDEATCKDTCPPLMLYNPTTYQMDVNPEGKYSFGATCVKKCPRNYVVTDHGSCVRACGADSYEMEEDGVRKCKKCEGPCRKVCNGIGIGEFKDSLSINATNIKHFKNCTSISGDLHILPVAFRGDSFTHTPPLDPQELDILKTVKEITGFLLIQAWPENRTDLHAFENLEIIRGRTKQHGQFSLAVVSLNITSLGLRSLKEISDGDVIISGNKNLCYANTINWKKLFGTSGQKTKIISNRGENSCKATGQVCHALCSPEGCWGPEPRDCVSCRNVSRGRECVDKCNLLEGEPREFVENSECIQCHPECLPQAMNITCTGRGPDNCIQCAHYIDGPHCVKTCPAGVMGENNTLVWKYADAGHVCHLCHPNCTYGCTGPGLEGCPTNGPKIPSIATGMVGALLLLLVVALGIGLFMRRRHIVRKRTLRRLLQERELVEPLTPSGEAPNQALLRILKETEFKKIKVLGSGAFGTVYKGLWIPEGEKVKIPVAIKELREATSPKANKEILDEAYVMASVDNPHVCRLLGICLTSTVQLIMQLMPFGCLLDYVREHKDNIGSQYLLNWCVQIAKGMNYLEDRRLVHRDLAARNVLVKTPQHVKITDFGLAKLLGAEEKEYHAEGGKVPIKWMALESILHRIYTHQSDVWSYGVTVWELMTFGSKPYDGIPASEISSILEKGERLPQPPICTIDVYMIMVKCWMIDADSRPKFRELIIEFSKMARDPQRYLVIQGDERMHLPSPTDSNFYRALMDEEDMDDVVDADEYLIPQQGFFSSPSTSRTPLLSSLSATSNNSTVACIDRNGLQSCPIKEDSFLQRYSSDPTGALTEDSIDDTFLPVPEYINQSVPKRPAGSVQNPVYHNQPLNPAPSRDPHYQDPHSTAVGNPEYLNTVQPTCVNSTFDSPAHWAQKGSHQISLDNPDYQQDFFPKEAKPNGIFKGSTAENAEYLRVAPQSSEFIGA
Serine/threonine-protein kinase pim-1, sequence (P11309 whole entry): as the sequence (P11309 whole entry, looked up) above
Serine/threonine-protein kinase pim-2, sequence (Q9P1W9 whole entry): as the sequence (Q9P1W9 whole entry, looked up) above

CC(C)Oc1cc(F)ccc1Nc1ncnc2ccc(-c3ccc(C(=O)N4CCNCC4)cc3)nc12
Activity [1]: 90.09%
IC50 [2]: 1 nM
inhibition in vivo at 5 mg/kg [3]: 41.2%
IC50 [4]: 774 nM
inhibition [5]: 60%
IC50 [6]: 43 nM
CLint scaled [7]: 68.8 mL/min/kg
AUC(0-inf) [8]: 1720 ng·h/mL
Activity [9]: Active
GI50 [10]: 1230 nM
IC50 [11]: > 10000 nM
IC50 [12]: 1 nM
Activity [13]: Non-Toxic
Activity [14]: Active
Activity [15]: Active
half-life [16]: 36.1 min
inhibition [17]: 100%
Cmax [18]: 652 ng/mL
Activity [19]: Non-Toxic
GI50 [20]: 1500 nM
inhibition [21]: 100%
Activity [22]: Non-Toxic
AUC(0-inf) [23]: 1680 ng·h/mL
IC50 [24]: 7 nM
Tmax [25]: 40.2 min
Activity [26]: Active
IC50 [27]: 7490 nM
Cmax [28]: 224 ng/mL
Activity [29]: Active
IC50 [30]: 232 nM
concentration at 24 h [31]: 765 ng/mL
Activity [32]: Non-Toxic
Activity [33]: 44.38%
inhibition [34]: 97%
Activity [35]: 0.11%
inhibition [36]: Active

Reference: ChEMBL document CHEMBL4825757, “Optimization of 4,6-Disubstituted Pyrido[3,2-d]pyrimidines as Dual MNK/PIM Inhibitors to Inhibit Leukemia Cell Growth” (J Med Chem, 2021)
